What was measured:
Type in all cases: in vivo, nu/nu mice
[1] = Body weight in HCT-8 xenograft study (Example 52); details: 40 mg/kg orally once a day for 20 days
Description: (§1) The antitumor activity of compound 31 was measured in human HCT-8 colon cancer xenograft model. The female nu/nu mice of 18˜20 g were fed by normal diet for 3 days. Then the cultured HCT-8 human colon cancer cells were implanted into the armpit of 50 mice. When tumors had reached approximately 100 mm^3, the mice were divided into 6 groups randomly. Each group has 8 mice. One group was treated with vehicle. One group was treated with sutent, the positive control drug. […] Each group was dosed orally once a day for 20 days. Tumor volumes as established by caliper measurements were recorded twice per week, along with body weights. At the end of study, the mice were killed, and tumors were weighed. The tumor growth inhibition of each group was calculated using the formula {[(the average tumor weight of vehicle group)−(the average tumor weight of drug group)]/(the average tumor weight of vehicle group)}×100%.

[2] = Body weight in SSMC7721 xenograft study (Example 53); details: 40 mg/kg orally once a day for 30 days
Description: as §1, with “human SSMC7721 liver” for “human HCT-8 colon”, “cultured SSMC7721” for “cultured HCT-8”, “human liver” for “human colon”, “mice. […]” for “mice. When tumors had reached approximately 100 mm^3, the mice were divided into 6 groups randomly. Each group has 8 mice.”, “for 30” for “for 20”

[3] = test system: human SSMC7721 liver cancer xenograft; assay: Antitumor activity of compound 31, SSMC7721 xenograft (Example 53); details: 40 mg/kg orally once a day for 30 days
Description: as §1, with “human SSMC7721 liver” for “human HCT-8 colon”, “cultured SSMC7721” for “cultured HCT-8”, “human liver” for “human colon”, “mice. […]” for “mice. When tumors had reached approximately 100 mm^3, the mice were divided into 6 groups randomly. Each group has 8 mice.”, “for 30” for “for 20”

[4] = Body weight in SSMC7721 xenograft study (Example 56); details: 40 mg/kg orally once a day for 30 days
Description: The antitumor activity of compound 33 and compound 37 were measured in human SSMC7721 liver cancer xenograft model. The female nu/nu mice of 18˜20 g were fed by normal diet for 3 days. Then the cultured SSMC7721 human liver cancer cells were implanted into the armpit of 50 mice. […] Each group has 8 mice. One group was treated with vehicle. One group was treated with sutent, the positive control drug. Two groups were treated with compound 33. The other two groups were treated with compound 37. Each group was dosed orally once a day for 30 days. Tumor volumes as established by caliper measurements were recorded twice per week, along with body weights. At the end of study, the mice were killed, and tumors were weighed. The tumor growth inhibition of each group was calculated using the formula {[(the average tumor weight of vehicle group)−(the average tumor weight of drug group)]/(the average tumor weight of vehicle group)}×100%.

[5] = Body weight in HCT-8 xenograft study (Example 54); details: 40 mg/kg orally once a day for 20 days
Description: The antitumor activity of compound 33 and compound 34 were measured in human HCT-8 colon cancer xenograft model. The female nu/nu mice of 18˜20 g were fed by normal diet for 3 days. Then the cultured HCT-8 human colon cancer cells were implanted into the armpit of 50 mice. When tumors had reached approximately 100 mm^3, the mice were divided into 6 groups randomly. Each group has 8 mice. One group was treated with vehicle. One group was treated with sutent, the positive control drug. Two groups were treated with compound 33. The other two groups were treated with compound 34. Each group was dosed orally once a day for 20 days. Tumor volumes as established by caliper measurements were recorded twice per week, along with body weights. At the end of study, the mice were killed, and tumors were weighed. The tumor growth inhibition of each group was calculated using the formula {[(the average tumor weight of vehicle group)−(the average tumor weight of drug group)]/(the average tumor weight of vehicle group)}×100%.

[6] = Body weight in HCT-8 xenograft study (Example 55); details: 40 mg/kg orally once a day for 20 days
Description: (§2) The antitumor activity of compound 33 and compound 37 were measured in human HCT-8 colon cancer xenograft model. The female nu/nu mice of 18˜20 g were fed by normal diet for 3 days. Then the cultured HCT-8 human colon cancer cells were implanted into the armpit of 50 mice. […] One group was treated with vehicle. One group was treated with sutent, the positive control drug. Two groups were treated with compound 33. The other two groups were treated with compound 37. Compound 33 was administered twice a day with an interval of 6 hours. Other drugs and vehicle were administered once a day. Each group was dosed orally for 20 days. Tumor volumes as established by caliper measurements were recorded twice per week, along with body weights. At the end of study, the mice were killed, and tumors were weighed. The tumor growth inhibition of each group was calculated using the formula {[(the average tumor weight of vehicle group)−(the average tumor weight of drug group)]/(the average tumor weight of vehicle group)}×100%.

[7] = Body weight in A549 xenograft study (Example 51); details: 40 mg/kg orally once a day for 24 days
Description: The antitumor activity of compound 31 was measured in human A549 lung cancer xenograft model. […] Then the cultured A549 human lung cancer cells were implanted into the armpit of 50 mice. When tumors had reached approximately 6 mm in diameter, the mice were divided into 6 groups randomly. Each group has 8 mice. One group was treated with vehicle. One group was treated with sutent, the positive control drug. […] Each group was dosed orally once a day for 24 days. Tumor volumes as established by caliper measurements were recorded twice per week, along with body weights. At the end of study, the mice were killed, and tumors were weighed. The tumor growth inhibition of each group was calculated using the formula {[(the average tumor weight of vehicle group)-(the average tumor weight of drug group)]/(the average tumor weight of vehicle group)}×100%.

[8] = test system: human HCT-8 colon cancer xenograft; assay: Antitumor activity of compounds 33 and 37, HCT-8 xenograft (Example 55); details: 40 mg/kg orally once a day for 20 days
Description: as §2

Q: With `CCN(CC)CCNC(=O)c1c(C)[nH]c(/C=C2\C(=O)Nc3ccc(F)cc32)c1C` [Sutent, reference compound] as the compound, how does the “Body weight (g) end” value ([1]; end) read?
A: Its value is 22.4 ± 1.1 g.

Q: And the “Body weight (g) start” value ([1]; start)?
A: Its value is 21.5 ± 0.7 g.

Q: What about the “Body weight (g) end” value ([2]; end) of the same compound?
A: The value was 24.8 ± 1.2 g.

Q: What about the “Body weight (g) start” value ([2]; start) of the same compound?
A: Its value is 21.0 ± 0.8 g.

Q: And the “TGI (%) Tumor growth inhibition” value [3]?
A: Its value is 70.3%.

Q: What about the “Tumor weight” value [3] of the same compound?
A: The value was 1.00 ± 0.68 g.

Q: And the “Body weight (g) end” value ([4]; end)?
A: Its value is 24.0 ± 0.6 g.

Q: And the “Body weight (g) start” value ([4]; start)?
A: Its value is 21.2 ± 1.1 g.

Q: What about the “Body weight (g) end” value ([5]; end) of the same compound?
A: The value was 22.1 ± 1.5 g.

Q: And the “Body weight (g) start” value ([5]; start)?
A: The value was 20.6 ± 1.2 g.

Q: What about the “Body weight (g) end” value ([6]; end) of the same compound?
A: The value was 23.7 ± 0.8 g.

Q: What about the “Body weight (g) start” value ([6]; start) of the same compound?
A: Its value is 21.3 ± 0.6 g.

Q: What about the “Body weight (g) end” value ([7]; end) of the same compound?
A: The value was 24.4 ± 2.3 g.

Q: And the “Body weight (g) start” value ([7]; start)?
A: The value was 20.3 ± 1.4 g.

Q: What about the “TGI (%) Tumor growth inhibition” value [8] of the same compound?
A: Its value is 95.3%.

Reference: patent US8211901B2, “Naphthamide derivatives as multi-target protein kinase inhibitors and histone deacetylase inhibitors” (Shenzhen Chipscreen Biosciences Ltd., priority 2009, dated 2012)
